The first test has as its target human orexin-2 receptor (Homo sapiens (Human), UniProt O43614). Briefly: In vitro assay: intracellular calcium measurements (FLIPR), antagonistic activity. The test is classed as cell-based. Conditions: CHO cells, 3 nM orexin-A, compound incubation 120 min; marked values are geometric means of n = 2-6; read-out: IC50 OX2. Here is the method: (§1) In Vitro Assay: Intracellular Calcium Measurements:
(§2) Chinese hamster ovary (CHO) cells expressing the human orexin-1 receptor and the human orexin-2 receptor, respectively, are grown in culture medium (Ham F-12 with L-Glutamine) containing 300 µg/ml G418, 100 U/ml penicillin, 100 µg/ml streptomycin and 10% heat inactivated fetal calf serum (FCS). The cells are seeded at 20,000 cells/well into 384-well black clear bottom sterile plates (Greiner). The seeded plates are incubated overnight at 37° C. in 5% CO2.
(§3) Fluorescence is measured for each well at 1 second intervals, and the height of each fluorescence peak is compared to the height of the fluorescence peak induced by 3 nM orexin-A with vehicle in place of antagonist. […] Optimized conditions were achieved by adjustment of pipetting speed and cell splitting regime. The calculated IC50 values may fluctuate depending on the daily cellular assay performance. Fluctuations of this kind are known to those skilled in the art.
On the technique in general: Calcium assays in cells follow changes in intracellular calcium, usually with a dye or a luminescent sensor.
human orexin-2 receptor, sequence (O43614 whole entry): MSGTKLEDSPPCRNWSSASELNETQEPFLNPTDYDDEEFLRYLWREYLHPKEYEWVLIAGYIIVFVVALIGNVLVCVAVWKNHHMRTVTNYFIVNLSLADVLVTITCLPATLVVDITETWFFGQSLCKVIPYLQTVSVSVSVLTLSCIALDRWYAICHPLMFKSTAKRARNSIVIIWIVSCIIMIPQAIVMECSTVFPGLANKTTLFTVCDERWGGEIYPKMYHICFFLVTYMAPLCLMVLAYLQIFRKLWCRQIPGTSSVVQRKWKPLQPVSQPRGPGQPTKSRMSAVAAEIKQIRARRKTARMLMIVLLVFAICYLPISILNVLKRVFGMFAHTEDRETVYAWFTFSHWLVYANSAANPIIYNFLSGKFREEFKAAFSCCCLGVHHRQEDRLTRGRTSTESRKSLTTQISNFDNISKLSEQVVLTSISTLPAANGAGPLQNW
human orexin-1 receptor, sequence (O43613 whole entry): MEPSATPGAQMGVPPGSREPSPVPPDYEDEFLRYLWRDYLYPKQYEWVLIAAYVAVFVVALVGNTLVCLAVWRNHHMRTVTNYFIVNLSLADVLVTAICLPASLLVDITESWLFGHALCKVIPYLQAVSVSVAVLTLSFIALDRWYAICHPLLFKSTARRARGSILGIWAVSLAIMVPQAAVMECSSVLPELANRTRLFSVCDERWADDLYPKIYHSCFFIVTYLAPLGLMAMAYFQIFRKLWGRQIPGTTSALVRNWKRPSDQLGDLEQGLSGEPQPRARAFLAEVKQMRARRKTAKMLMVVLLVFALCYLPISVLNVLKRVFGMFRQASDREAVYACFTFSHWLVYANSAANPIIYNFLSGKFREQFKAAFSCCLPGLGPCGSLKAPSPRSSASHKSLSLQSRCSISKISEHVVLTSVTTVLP
With `COc1cc(F)ccc1[C@@H]1C[C@@H](O)C(=O)N1Cc1ccc(OC(F)(F)F)cc1` (racemic) [Example 296, rac-(3R*,5S*)-5-(4-fluoro-2-methoxyphenyl)-3-hydroxy-1-(4-(trifluoromethoxy)benzyl)pyrrolidin-2-one], the IC50 (in general, the concentration needed to halve the response being measured) came out at 2210 nM.

For `CCOc1ccccc1[C@@H]1C[C@H](F)C(=O)N1Cc1ccc(OC(F)(F)F)cc1` (racemic) [Example 300, rac-(3S*,5S*)-5-(2-ethoxyphenyl)-3-fluoro-1-(4-(trifluoromethoxy)benzyl)pyrrolidin-2-one], the IC50 worked out at 98 nM.

On to `COc1cc(F)ccc1[C@@H]1C[C@H](F)C(=O)N1Cc1ccc(OC(F)(F)F)cc1` (racemic) [Example 303, rac-(3S*,5S*)-3-fluoro-5-(4-fluoro-2-methoxyphenyl)-1-(4-(trifluoromethoxy)benzyl)pyrrolidin-2-one], for which the IC50 turned out to be 143 nM.

Regarding `CCOc1c(F)cccc1[C@@H]1C[C@@H](O)C(=O)N1Cc1ccc(OC(F)(F)F)cc1` (racemic) [Example 310, rac-(3R*,5S*)-5-(2-ethoxy-3-fluorophenyl)-3-hydroxy-1-(4-(trifluoromethoxy)benzyl)pyrrolidin-2-one], the IC50 worked out at 1680 nM.

For the molecule `COc1ccc(F)c(OC)c1[C@@H]1C[C@@H](O)C(=O)N1Cc1ccc(OC(F)(F)F)cc1` (racemic) [Example 311, rac-(3R*,5S*)-5-(3-fluoro-2,6-dimethoxyphenyl)-3-hydroxy-1-(4-(trifluoromethoxy)benzyl)pyrrolidin-2-one], the IC50 was determined as 742 nM.

For the molecule `COc1c(F)ccc(F)c1[C@@H]1C[C@H](F)C(=O)N1Cc1ccc(OC(F)(F)F)cc1` (racemic) [Example 321, rac-(3S*,5S*)-5-(3,6-difluoro-2-methoxyphenyl)-3-fluoro-1-(4-(trifluoromethoxy)benzyl)pyrrolidin-2-one], the IC50 was determined as 405 nM.

As for `CCOc1ccc(F)c(F)c1[C@@H]1C[C@@H](O)C(=O)N1Cc1ccc(OC(F)(F)F)cc1` (racemic) [Example 338, rac-(3R*,5S*)-5-(6-ethoxy-2,3-difluorophenyl)-3-hydroxy-1-(4-(trifluoromethoxy)benzyl)pyrrolidin-2-one], the IC50 is 58 nM.

On to `CC(C)Oc1cccc(F)c1[C@@H]1C[C@@H](O)C(=O)N1Cc1ccc(OC(F)(F)F)cc1` (racemic) [Example 394, rac-(3R*,5S*)-5-(2-fluoro-6-isopropoxyphenyl)-3-hydroxy-1-(4-(trifluoromethoxy)benzyl)pyrrolidin-2-one], for which the half-maximal inhibitory concentration (IC50) came out at 77 nM.

With `COc1cccc(F)c1[C@@H]1C[C@@H](Cl)C(=O)N1Cc1ccc2oc3ccccc3c2c1` (racemic) [Example 396, rac-(3R*,5S*)-3-chloro-1-(dibenzo[b,d]furan-2-ylmethyl)-5-(2-fluoro-6-methoxyphenyl)pyrrolidin-2-one], the IC50 was found to be 29 nM.

For another test, the target named is human orexin-1 receptor (Homo sapiens (Human), UniProt O43613). The test is described as above. Conditions: CHO cells, 3 nM orexin-A, compound incubation 120 min; marked values are geometric means of n = 2-6; read-out: IC50 OX1. The test is classed as cell-based. Here is the method:
as §1, §2, §3
In the case of `CCOc1ccc(F)c(F)c1[C@@H]1C[C@H](Cl)C(=O)N1Cc1ccc(OC(F)(F)F)cc1` (racemic) [Example 339, rac-(3S*,5S*)-3-chloro-5-(6-ethoxy-2,3-difluorophenyl)-1-(4-(trifluoromethoxy)benzyl)pyrrolidin-2-one], the IC50 was 816 nM.

`CCOc1cc(F)ccc1[C@@H]1C[C@H](F)C(=O)N1Cc1ccc(OC(F)(F)F)cc1` (racemic) [Example 344, rac-(3S*,5S*)-5-(2-ethoxy-4-fluorophenyl)-3-fluoro-1-(4-(trifluoromethoxy)benzyl)pyrrolidin-2-one]: the IC50 worked out at 1800 nM.

With `CCOc1ccc(F)c(F)c1[C@@H]1C[C@@H](Cl)C(=O)N1Cc1ccc(OC(F)(F)F)cc1` (racemic) [Example 346, rac-(3R*,5S*)-3-chloro-5-(6-ethoxy-2,3-difluorophenyl)-1-(4-(trifluoromethoxy)benzyl)pyrrolidin-2-one], the IC50 stood at 2850 nM.

For `COc1cccc(OC)c1[C@@H]1C[C@@H](F)C(=O)N1Cc1ccc2oc3ccccc3c2c1` (racemic) [Example 368, rac-(3R*,5S*)-1-(dibenzo[b,d]furan-2-ylmethyl)-5-(2,6-dimethoxyphenyl)-3-fluoropyrrolidin-2-one], the IC50 was 23 nM.

In the case of `CC(C)Oc1cccc(F)c1[C@@H]1C[C@H](F)C(=O)N1Cc1ccc(OC(F)(F)F)cc1` (racemic) [Example 407, rac-(3S*,5S*)-3-fluoro-5-(2-fluoro-6-isopropoxyphenyl)-1-(4-(trifluoromethoxy)benzyl)pyrrolidin-2-one], the IC50 turned out to be 678 nM.

For the molecule `CC(C)Oc1cccc(F)c1[C@@H]1C[C@H](Cl)C(=O)N1Cc1ccc(OC(F)(F)F)cc1` (racemic) [Example 409, rac-(3S*,5S*)-3-chloro-5-(2-fluoro-6-isopropoxyphenyl)-1-(4-(trifluoromethoxy)benzyl)pyrrolidin-2-one], the IC50 is 323 nM.

Take `CCOc1cccc(Cl)c1[C@@H]1C[C@@H](O)C(=O)N1Cc1ccc(OC(F)(F)F)cc1` (racemic) [Example 427, rac-(3R*,5S*)-5-(2-chloro-6-ethoxyphenyl)-3-hydroxy-1-(4-(trifluoromethoxy)benzyl)pyrrolidin-2-one]: the IC50 came out at 1230 nM.

For the molecule `COc1cccc(F)c1[C@@H]1C[C@@H](O)C(=O)N1Cc1cccc(OC(F)(F)F)c1` (racemic) [Example 430, rac-(3R*,5S*)-5-(2-fluoro-6-methoxyphenyl)-3-hydroxy-1-(3-(trifluoromethoxy)benzyl)pyrrolidin-2-one], the IC50 stood at 5360 nM.

With `CCOc1cccc(F)c1[C@@H]1C[C@H](F)C(=O)N1Cc1ccc(OC(F)(F)F)c(Cl)c1` (racemic) [Example 461, rac-(3S*,5S*)-1-(3-chloro-4-(trifluoromethoxy)benzyl)-5-(2-ethoxy-6-fluorophenyl)-3-fluoropyrrolidin-2-one], the IC50 came to 724 nM.

As for `CCOc1cccc(F)c1[C@@H]1C[C@H](Cl)C(=O)N1Cc1ccc(OC(F)(F)F)c(Cl)c1` (racemic) [Example 462, rac-(3S*,5S*)-3-chloro-1-(3-chloro-4-(trifluoromethoxy)benzyl)-5-(2-ethoxy-6-fluorophenyl)pyrrolidin-2-one], the IC50 turned out to be 405 nM.

Regarding `COc1cccc(OC)c1C1CCCC(=O)N1Cc1ccc2ccccc2n1` (stereo not drawn) [Example 4, 6-(2,6-dimethoxyphenyl)-1-(quinolin-2-ylmethyl)piperidin-2-one], the IC50 was 174 nM.

Turning to `COc1cccc(OC)c1C1CCCC(=O)N1Cc1ccc2ccccc2n1` (stereo not drawn) [Example 4a, 6-(2,6-dimethoxyphenyl)-1-(quinolin-2-ylmethyl)piperidin-2-one], the IC50 came to 16 nM.

On to `COc1cccc(OC)c1C1CCCC(=O)N1Cc1ccc2ccccc2n1` (stereo not drawn) [Example 4b, 6-(2,6-dimethoxyphenyl)-1-(quinolin-2-ylmethyl)piperidin-2-one], for which the IC50 amounted to 1420 nM.

For `COc1cccc(OC)c1C1CCCC(=O)N1Cc1cnc(OC(F)F)c(C2CC2)c1` (stereo not drawn) [Example 70, 1-((5-cyclopropyl-6-(difluoromethoxy)pyridin-3-yl)methyl)-6-(2,6-dimethoxyphenyl)piperidin-2-one], the IC50 is 1780 nM.

The same test, now with this note: CHO cells, 3 nM orexin-A, compound incubation time of 10 min; marked values are geometric means of n = 2-6; read-out: IC50 OX1.
With `CCOc1cccc(OCC)c1C1CCCC(=O)N1Cc1ccc(OC(F)(F)F)cc1` (stereo not drawn) [Example 231, 6-(2,6-diethoxyphenyl)-1-(4-(trifluoromethoxy)benzyl)piperidin-2-one], the IC50 worked out at 550 nM.

The values above are taken from patent US9242970B2 (ACTELION PHARMACEUTICALS LTD., priority 2010, dated 2016).
